Test results from ChEMBL document CHEMBL5380834, “Design, Synthesis, and Biological Evaluation of Androgen Receptor (AR) Antagonist-Heat Shock Protein 90 (Hsp90) Inhibitor Conjugates for Targeted Therapy of Castration-Resistant Prostate Cancer” (J Med Chem, 2023).
pIC50: −log10 of the molar value. The source made the active and inactive calls. The calls are words filed in the database; no cut-off is given here.

Key:
[1] = Biodistribution in BALB/c mouse lung xenografted with human 22Rv1 cells at 2.5 mg/kg, iv measured at 0.5 to 1 hrs; type: ADME, organism-based, CWR22R; settings: in vivo, time 0.5-1 hrs
[2] = system: CWR22R; assay: Antitumor activity against human 22Rv1 cells xenografted in BALB/c nude mouse assessed as downregulation of AR-V7 level at 2.5 mg/kg, ip administered once every 4th day for 3 weeks; type: functional, organism-based
[3] = Biodistribution in BALB/c mouse testis xenografted with human 22Rv1 cells at 2.5 mg/kg, iv measured at 0.5 to 1 hrs; type: ADME, organism-based, CWR22R; settings: in vivo, time 0.5-1 hrs
[4] = Toxicity in ICR mouse assessed as testis damage at 30 to 50 mg/kg, iv administered every second day for 14 days; type: organism-based; settings: in vivo, 336 h, dose 30-50 mg/kg, time 14 day
[5] = Biodistribution in BALB/c mouse tumor xenografted with human 22Rv1 cells at 2.5 mg/kg, iv measured at 0.5 to 1 hrs; type: ADME, organism-based, Neoplasm, CWR22R; settings: in vivo, time 0.5-1 hrs
[6] = Downregulation of AR-regulated TMPRSS2 protein level in human LNCaP cells at 300 nM measured for 48 hrs in presence of AR agonist, R1881 in charcoal stripped serum by Western blot analysis relative to control; type: functional
[7] = Toxicity in BALB/c nude mouse xenografted with human LNCaP cells assessed as animal weight loss at 2.5 mg/kg, ip administered once every 4th day for 3 weeks; type: organism-based; settings: in vivo, 504 h
[8] = system: CWR22R; assay: Induction of apoptosis in human 22Rv1 cells assessed as increase in caspase-3 level at 1 uM measured after 48 hrs by Western blot analysis; type: functional, cell-based
[9] = Downregulation of AR-regulated PSA protein level in human LNCaP cells at 300 nM measured for 48 hrs in presence of AR agonist, R1881 in charcoal stripped serum by Western blot analysis relative to control; type: functional
[10] = system: LNCaP; assay: Downregulation of AR-regulated FKBP5 protein level in human LNCaP cells measured for 48 hrs in presence of AR agonist, R1881 in charcoal stripped serum by Western blot analysis; type: functional, cell-based; settings: dose 300-1000 nM
[11] = Toxicity in ICR mouse assessed as liver damage at 30 to 50 mg/kg, iv administered every second day for 14 days; type: organism-based; settings: in vivo, 336 h, dose 30-50 mg/kg, time 14 day
[12] = Biodistribution in BALB/c mouse prostate gland xenografted with human 22Rv1 cells at 2.5 mg/kg, iv measured at 0.5 to 1 hrs; type: ADME, organism-based, CWR22R; settings: in vivo, time 0.5-1 hrs
[13] = system: LNCaP; assay: Induction of apoptosis in human LNCaP cells assessed as increase in caspase-3 level at 1 uM measured after 48 hrs by Western blot analysis; type: functional, cell-based
[14] = Biodistribution in BALB/c mouse liver xenografted with human 22Rv1 cells at 2.5 mg/kg, iv measured at 0.5 to 1 hrs; type: ADME, organism-based, CWR22R; settings: in vivo, time 0.5-1 hrs
[15] = system: LNCaP; assay: Antitumor activity against human LNCaP cells xenografted in BALB/c nude mouse assessed as downregulation of PSA level at 5 mg/kg, ip administered once every 4th day for 3 weeks and measured at 2 hrs post dose; type: functional, organism-based
[16] = Toxicity in ICR mouse assessed as kidney damage at 30 to 50 mg/kg, iv administered every second day for 14 days; type: organism-based; settings: in vivo, 336 h, dose 30-50 mg/kg, time 14 day
[17] = biological target: T1, Androgen receptor (Homo sapiens) (UniProt P10275); assay: Induction of full length AR degradation in human RWPE-1 cells at 10 uM measured for 24 hrs by Western blot analysis; type: cell-based
T1 sequence (whole entry): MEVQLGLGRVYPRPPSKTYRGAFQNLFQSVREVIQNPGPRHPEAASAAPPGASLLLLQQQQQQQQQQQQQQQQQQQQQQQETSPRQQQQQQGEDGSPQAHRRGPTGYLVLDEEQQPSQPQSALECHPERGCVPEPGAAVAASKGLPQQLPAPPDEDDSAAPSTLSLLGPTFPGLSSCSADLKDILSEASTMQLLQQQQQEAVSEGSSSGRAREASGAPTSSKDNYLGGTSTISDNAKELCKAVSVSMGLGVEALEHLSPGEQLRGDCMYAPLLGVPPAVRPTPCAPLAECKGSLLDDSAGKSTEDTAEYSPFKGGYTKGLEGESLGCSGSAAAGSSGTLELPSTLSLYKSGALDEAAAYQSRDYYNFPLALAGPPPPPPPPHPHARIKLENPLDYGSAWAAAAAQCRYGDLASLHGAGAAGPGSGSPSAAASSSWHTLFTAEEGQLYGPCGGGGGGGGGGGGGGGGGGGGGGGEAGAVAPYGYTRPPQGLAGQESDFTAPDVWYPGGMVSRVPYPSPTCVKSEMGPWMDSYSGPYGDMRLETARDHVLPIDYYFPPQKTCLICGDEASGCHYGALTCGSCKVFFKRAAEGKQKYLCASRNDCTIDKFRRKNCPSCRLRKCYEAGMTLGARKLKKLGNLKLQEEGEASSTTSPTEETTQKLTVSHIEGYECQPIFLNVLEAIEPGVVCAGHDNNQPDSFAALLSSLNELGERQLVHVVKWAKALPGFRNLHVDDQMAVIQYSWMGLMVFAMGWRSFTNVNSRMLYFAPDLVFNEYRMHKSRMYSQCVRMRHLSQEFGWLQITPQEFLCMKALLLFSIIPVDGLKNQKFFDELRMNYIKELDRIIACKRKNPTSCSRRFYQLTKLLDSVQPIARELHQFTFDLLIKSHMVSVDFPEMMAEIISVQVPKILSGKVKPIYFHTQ

[18] = system: CWR22R; assay: Antitumor activity against human 22Rv1 cells xenografted in BALB/c nude mouse assessed as tumor growth inhibition at 2.5 mg/kg, ip administered once every 4th day for 3 weeks; type: functional; settings: 22Rv1, 504 h, read-out: TGI
[19] = system: CWR22R; assay: Cytotoxicity against human 22Rv1 cells assessed as inhibition of cell growth incubated for 5 days in presence of AR agonist, R1881 by WST-1 assay; type: functional, cell-based; settings: 22Rv1, 120 h

- Drug uptake [1]: Active
- Drug uptake [3]: Active
- Drug uptake [5]: Active
- Drug uptake [12]: Active
- Drug uptake [14]: Active
- Activity [17]: inactive
SMILES: CC(C)c1cc(-c2n[nH]c(=O)n2-c2ccc(CN3CCN(CC4CCN(c5ccc(C(=O)N[C@H]6CC[C@H](Oc7ccc(C#N)c(Cl)c7)CC6)nn5)CC4)CC3)cc2)c(O)cc1O
- Activity [2]: Active
- Activity [4]: Non-Toxic
- Activity [6]: >50%
- Activity [7]: 10%
- Activity [8]: Active
- Activity [9]: >50%
- Activity [10]: Dose-Dependent Effect
- Activity [11]: Non-Toxic
- Activity [13]: Active
- Activity [15]: Active
- Activity [16]: Non-Toxic
- inhibition in vivo at 2.5 mg/kg [18]: 50%
- pIC50 [19]: 7.58
